The source of these data is patent publication US20230146395A1, “Substituted Pyrimidines and Uses Thereof” (Verge Analytics, Inc., priority 2020, published 2023).

The structures appear in SMILES notation. Counter-ions that a name gives are not always drawn.

The target in this test is T1, Full length human recombinant PIKFYVE (Homo sapiens, UniProt Q9Y2I7).
T1 construct: Full length human recombinant PIKFYVE; purchased Carna Biosciences (Kobe, Japan); host or cells: baculovirus expression system
T1 sequence (Q9Y2I7 whole entry): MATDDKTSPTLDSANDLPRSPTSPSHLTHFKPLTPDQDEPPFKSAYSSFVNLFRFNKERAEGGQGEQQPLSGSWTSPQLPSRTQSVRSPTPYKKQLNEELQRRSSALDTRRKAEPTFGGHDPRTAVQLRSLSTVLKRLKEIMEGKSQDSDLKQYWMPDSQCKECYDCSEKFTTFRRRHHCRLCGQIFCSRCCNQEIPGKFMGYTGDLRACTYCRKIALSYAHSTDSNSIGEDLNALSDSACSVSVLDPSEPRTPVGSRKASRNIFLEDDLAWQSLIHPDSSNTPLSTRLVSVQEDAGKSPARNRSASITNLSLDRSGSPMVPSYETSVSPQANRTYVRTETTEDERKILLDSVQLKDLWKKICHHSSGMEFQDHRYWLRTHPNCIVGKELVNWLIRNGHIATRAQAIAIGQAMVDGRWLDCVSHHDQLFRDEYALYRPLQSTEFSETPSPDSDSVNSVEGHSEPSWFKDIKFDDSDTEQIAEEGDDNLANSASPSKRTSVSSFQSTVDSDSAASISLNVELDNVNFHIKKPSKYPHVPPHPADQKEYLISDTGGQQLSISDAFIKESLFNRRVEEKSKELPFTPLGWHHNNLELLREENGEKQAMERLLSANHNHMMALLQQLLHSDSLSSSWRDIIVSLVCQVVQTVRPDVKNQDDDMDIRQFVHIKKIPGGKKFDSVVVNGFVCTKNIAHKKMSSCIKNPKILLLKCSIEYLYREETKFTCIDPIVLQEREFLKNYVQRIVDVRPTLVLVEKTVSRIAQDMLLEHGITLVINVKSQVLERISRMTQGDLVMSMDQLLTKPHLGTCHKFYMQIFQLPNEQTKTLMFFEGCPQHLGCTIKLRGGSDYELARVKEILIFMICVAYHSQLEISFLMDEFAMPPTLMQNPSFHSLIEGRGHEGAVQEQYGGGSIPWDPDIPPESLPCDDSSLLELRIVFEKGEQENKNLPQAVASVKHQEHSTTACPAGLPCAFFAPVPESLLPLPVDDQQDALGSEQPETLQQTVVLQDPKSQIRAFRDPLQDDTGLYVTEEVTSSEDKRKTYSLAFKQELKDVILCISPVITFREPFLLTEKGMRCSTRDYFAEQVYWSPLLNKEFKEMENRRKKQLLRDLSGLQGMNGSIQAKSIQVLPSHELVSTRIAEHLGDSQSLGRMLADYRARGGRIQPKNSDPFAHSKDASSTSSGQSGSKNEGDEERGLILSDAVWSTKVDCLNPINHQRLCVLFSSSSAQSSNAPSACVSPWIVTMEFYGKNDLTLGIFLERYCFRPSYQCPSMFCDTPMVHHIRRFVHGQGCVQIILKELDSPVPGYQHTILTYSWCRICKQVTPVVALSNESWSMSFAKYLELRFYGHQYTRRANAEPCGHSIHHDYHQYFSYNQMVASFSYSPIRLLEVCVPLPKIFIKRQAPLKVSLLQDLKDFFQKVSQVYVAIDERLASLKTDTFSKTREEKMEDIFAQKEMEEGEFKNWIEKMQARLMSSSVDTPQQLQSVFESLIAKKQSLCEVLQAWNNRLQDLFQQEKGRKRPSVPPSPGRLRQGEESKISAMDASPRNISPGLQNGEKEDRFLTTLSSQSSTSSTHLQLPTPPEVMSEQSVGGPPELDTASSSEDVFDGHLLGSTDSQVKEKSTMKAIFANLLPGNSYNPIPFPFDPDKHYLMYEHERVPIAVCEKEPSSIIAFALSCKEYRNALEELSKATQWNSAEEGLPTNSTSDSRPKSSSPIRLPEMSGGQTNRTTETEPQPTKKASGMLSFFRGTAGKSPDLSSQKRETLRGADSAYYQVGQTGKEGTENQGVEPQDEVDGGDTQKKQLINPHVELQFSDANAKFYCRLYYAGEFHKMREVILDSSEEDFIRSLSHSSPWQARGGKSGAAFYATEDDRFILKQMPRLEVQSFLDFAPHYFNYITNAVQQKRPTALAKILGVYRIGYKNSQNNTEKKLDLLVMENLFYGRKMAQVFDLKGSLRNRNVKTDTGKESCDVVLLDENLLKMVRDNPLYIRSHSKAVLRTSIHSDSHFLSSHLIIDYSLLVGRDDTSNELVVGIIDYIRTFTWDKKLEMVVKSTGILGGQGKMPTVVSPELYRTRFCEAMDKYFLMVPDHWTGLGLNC
Description: Inhibition of PIKfyve (microfluidic electrophoresis kinase assay, PI3P/PS substrate). In kind it is biochemical. The settings on record: 12 concentrations. Here is the method:
Full length human recombinant PIKFYVE expressed in baculovirus expression system as N-terminal GST-fusion protein (265 kDa) was obtained from Carna Biosciences (Kobe, Japan). The kinase substrate was prepared by mixing and sonicating fluorescently-labeled phosphatidylinositol 3-phosphate (PI3P) with phospho-L-serine (PS) at a 1:10 ratio in 50 mM HEPES buffer pH 7.5.
The kinase reactions were assembled in 384-well plates (Greiner) in a total volume of […] as follows. Kinase protein was pre-diluted in an assay buffer comprising 25 mM HEPES, pH 7.5, 1 mM DTT, 2.5 mM MgCl2, and 2.5 mM MnCl2, and 0.005% Triton X-100, and dispensed into a 384-well plate (10 μL per well). Test compounds were serially pre-diluted in DMSO and added to the protein samples by acoustic dispensing (Labcyte Echo). The concentration of DMSO was equalized to 1% in all samples. All test compounds were tested at 12 concentrations. Apilimod was used as a reference compound and was tested in identical manner in each assay plate. Control samples (0%-inhibition, in the absence of inhibitor, DMSO only) and 100%-inhibition (in the absence of enzyme) were assembled in replicates of four and were used to calculate %-inhibition in the presence of compounds. The reactions were initiated by addition of 10 μL of 2×PI3P/PS substrate supplemented with ATP. The final concentration of enzyme was 2 nM, the final concentration of ATP was […], and the final concentration of PI3P/PS substrate was 1 μM (PI3P). The kinase reactions were allowed to proceed for 3 h at room temperature. Following incubation, the reactions were quenched by addition of […] of termination buffer (100 mM HEPES, pH 7.5, 0.01% Triton X-100, 20 mM EDTA). Terminated plates were analyzed on a microfluidic electrophoresis instrument (Caliper LabChip® 3000, Caliper Life Sciences/Perkin Elmer). The change in the relative fluorescence intensity of the PI(3)P substrate and PI(3,5)P product peaks was measured. The activity in each test sample was determined as the product to sum ratio (PSR): P/(S+P), where P is the peak height of the product, and S is the peak height of the substrate. Percent inhibition (Pinh) was determined using the following equation:
Pinh=(PSR0% inh−PSRcompound)/(PSR0% inh−PSR100% inh)*100
in which PSRcompound is the product/sum ratio in the presence of compound, PSR0% inh is the product/sum ratio in the absence of compound, and the PSR100% inh is the product/sum ratio in the absence of the enzyme.
As a reminder, the IC50 is the concentration that inhibits the measured activity by half. Consider `Cc1cccc(-c2cnn(-c3nc(N4CCOCC4)c4oc(C(=O)NCCS(=O)(=O)N(C)C)cc4n3)c2)c1` [Compound 128, N-(2-(N,N-dimethylsulfamoyl)ethyl)-4-morpholino-2-(4-(m-tolyl)-1H-pyrazol-1-yl)furo[3,2-d]pyrimidine-6-carboxamide], for which the IC50 turned out to be 66.2 nM.
The result for `O=C(NCC1CC1)c1cc2nc(-n3cc(-c4ccccc4)cn3)nc(N3CCOCC3)c2o1` [Compound 116, N-(cyclopropylmethy 1)-4-morpholino-2-(4-phenyl-1H-pyrazol-1-yl)furo[3,2-d]pyrimidine-6-carboxamide] reads 49.3 nM; that for `c1cc(-c2cc3nc(Nc4cc(CC5CC5)n[nH]4)nc(N4CCOCC4)c3o2)ccn1` [Compound 69, N-(3-(cyclopropylmethyl)-1H-pyrazol-5-yl)-4-morpholino-6-(pyridin-4-yl)furo[3,2-d]pyrimidin-2-amine hydrochloride], 338 nM.
On to `O=C(NC1CC1)c1cc2nc(-n3ccc(-c4ccccc4)n3)nc(N3CCOCC3)c2o1` [Compound 153, N-cyclopropyl-4-morpholino-2-(3-phenylpyrazol-1-yl)furo[3,2-d]pyrimidine-6-carboxamide], for which the IC50 worked out at 24 nM.
With `Cc1cc(-c2cc3nc(-n4cc(-c5ccccc5)cn4)nc(N4CCOCC4)c3o2)nn1CCN(C)C` [Compound 183, N,N-dimethyl-2-[5-methyl-3-[4-morpholino-2-(4-phenylpyrazol-1-yl)furo[3,2-d]pyrimidin-6-yl]pyrazol-1-yl]ethanamine], the IC50 was determined as 11.8 nM.
For the compound `Cc1cccc(-c2ccn(-c3nc(N4CCOCC4)c4oc(-c5ccccn5)c(C)c4n3)n2)c1` [Compound 122, 7-methyl-4-morpholino-6-(pyridin-2-yl)-2-(3-(m-tolyl)-1H-pyrazol-1-yl)furo[3,2-d]pyrimidine], the IC50 was 12.7 nM.
The result for `c1cncc(-c2cc(Nc3nc(N4CCOCC4)c4oc(-c5ccncc5)cc4n3)[nH]n2)c1` [Compound 18, 4-morpholino-6-(4-pyridyl)-N-[5-(3-pyridyl)-1H-pyrazol-3-yl]furo[3,2-d]pyrimidin-2-amine, hydrogen chloride] reads 144 nM; that for `c1ccc(-c2cc(Nc3nc(N4CCOCC4)c4oc(CN5CCCCC5)cc4n3)[nH]n2)cc1` [Compound 13], 545 nM.
As to `Cc1cccc(-c2cnn(-c3nc(N4CCOCC4)c4oc(-c5ccncc5)cc4n3)c2)c1` [Compound 42, 4-morpholino-6-(pyridin-4-yl)-2-(4-(m-tolyl)-1H-pyrazol-1-yl)furo[3,2-d]pyrimidine], the IC50 amounted to 9 nM.
For the compound `CNC(=O)c1cc2nc(Nc3cc(-c4cccs4)n[nH]3)nc(N3CCOCC3)c2o1` [Compound 85, N-methyl-4-morpholino-2-((5-(thiophen-2-yl)-1H-pyrazol-3-yl)amino)furo[3,2-d]pyrimidine-6-carboxamide, hydrogen chloride], the half-inhibitory concentration (IC50) was 69 nM.
Regarding `Cc1cc(Nc2nc(N3CCOCC3)c3oc(-c4ccncc4)cc3n2)[nH]n1` [Compound 5, N-(5-methyl-1H-pyrazol-3-yl)-4-morpholino-6-(4-pyridyl)furo[3,2-d]pyrimidin-2-amine, hydrogen chloride], the IC50 worked out at 279 nM.
For `Cc1cc(-c2cc3nc(-n4ccc(-c5ccccc5)n4)nc(N4CCOCC4)c3o2)nn1CCN(C)C` [Compound 177, N,N-dimethyl-2-[5-methyl-3-[4-morpholino-2-(3-phenylpyrazol-1-yl)furo[3,2-d]pyrimidin-6-yl]pyrazol-1-yl]ethanamine], the IC50 stood at 41.3 nM.
Consider `O=C(NC1CCOCC1)c1cc2nc(-n3cc(-c4ccccc4)cn3)nc(N3CCOCC3)c2o1` [Compound 171, 4-morpholino-2-(4-phenylpyrazol-1-yl)-N-tetrahydropyran-4-yl-furo[3,2-d]pyrimidine-6-carboxamide], for which the 50% inhibitory concentration (IC50) is 39.2 nM.
For `Cn1ccc(-c2cc3nc(-n4ccc(Br)n4)nc(N4CCOCC4)c3o2)n1` [Compound 195, 2-(3-bromopyrazol-1-yl)-6-(1-methylpyrazol-3-yl)-4-morpholino-furo[3,2-d]pyrimidine], the 50% inhibitory concentration (IC50) was found to be 907 nM.
With `Cc1cc(-c2ccn(-c3nc(N4CCOCC4)c4oc(-c5ccccn5)cc4n3)n2)ccn1` [Compound 188, 2-[3-(2-methyl-4-pyridyl)pyrazol-1-yl]-4-morpholino-6-(2-pyridyl)furo[3,2-d]pyrimidine], the half-inhibitory concentration (IC50) worked out at 2830 nM.
For `Cc1cccc(-c2ccn(-c3nc(N4CCOCC4)c4oc(-c5cc(C)ns5)cc4n3)n2)c1` [Compound 210, 6-(3-methylisothiazol-5-yl)-4-morpholino-2-[3-(m-tolyl)pyrazol-1-yl]furo[3,2-d]pyrimidine], the 50% inhibitory concentration (IC50) is 3.8 nM.
For the compound `Cc1cccc(-c2cc(Nc3nc(N4CCOCC4)c4oc(-c5ccccn5)cc4n3)[nH]n2)c1` [Compound 27, 4-morpholino-N-[5-(m-tolyl)-1H-pyrazol-3-yl]-6-(2-pyridyl)furo[3,2-d]pyrimidin-2-amine, hydrogen chloride], the IC50 was determined as 1 nM.
On to `Cc1cccc(-c2ccn(-c3nc(N4CCOCC4)c4oc(-c5cc(C)n[nH]5)cc4n3)n2)c1` [Compound 173, 6-(3-methyl-1H-pyrazol-5-yl)-4-morpholino-2-[3-(m-tolyl)pyrazol-1-yl]furo[3,2-d]pyrimidine], for which the half-inhibitory concentration (IC50) is 0.6 nM.
As to `CN1CCC(c2cc3nc(Nc4cc(-c5ccncc5)n[nH]4)nc(N4CCOCC4)c3o2)CC1` [Compound 34, 6-(1-methylpiperidin-4-yl)-4-morpholino-N-(3-(pyridin-4-yl)-1H-pyrazol-5-yl)furo[3,2-d]pyrimidin-2-amine hydrochloride], the IC50 was 10 nM.
Regarding `CN1CCCC(c2cc3nc(Nc4cc(-c5ccccc5)n[nH]4)nc(N4CCOCC4)c3o2)C1` (stereo not shown) [Compound 35, 6-(1-methylpiperidin-3-yl)-4-morpholino-N-(3-phenyl-1H-pyrazol-5-yl)furo[3,2-d]pyrimidin-2-amine hydrochloride], the IC50 worked out at 205 nM.
For `Cc1cccc(-c2ccn(-c3nc(N4CCOCC4)c4oc(C(=O)NS(C)(=O)=O)cc4n3)n2)c1` [Compound 98, N-(methylsulfonyl)-4-morpholino-2-(3-(m-tolyl)-1H-pyrazol-1-yl)furo[3,2-d]pyrimidine-6-carboxamide], the half-maximal inhibitory concentration (IC50) amounted to 78.7 nM.
Take `Cc1cccc(-c2ccn(-c3nc(N4CCOCC4)c4oc(-c5cc(C)no5)cc4n3)n2)c1` [Compound 204, 6-(3-methylisoxazol-5-yl)-4-morpholino-2-(3-(m-tolyl)-1H-pyrazol-1-yl)furo[3,2-d]pyrimidine]: the 50% inhibitory concentration (IC50) turned out to be 2.1 nM.
Consider `CN1CCCC(NC(=O)c2cc3nc(-n4cc(-c5ccccc5)cn4)nc(N4CCOCC4)c3o2)C1` (stereo not shown) [Compound 169, N-(1-methyl-3-piperidyl)-4-morpholino-2-(4-phenylpyrazol-1-yl)furo[3,2-d]pyrimidine-6-carboxamide], for which the half-maximal inhibitory concentration (IC50) worked out at 67.3 nM.
On to `O=C(c1cc2nc(Nc3cc(-c4ccccc4)n[nH]3)nc(N3CCOCC3)c2o1)N1CCC1` [Compound 53, azetidin-1-yl(4-morpholino-2-((3-phenyl-1H-pyrazol-5-yl)amino)furo[3,2-d]pyrimidin-6-yl)methanone hydrochloride], for which the 50% inhibitory concentration (IC50) came out at 60 nM.
In the case of `[2H]C([2H])([2H])c1cccc(-c2cnn(-c3nc(N4CCOCC4)c4oc(-c5ccn(C)n5)cc4n3)c2)c1` [Compound 215, 6-(1-methylpyrazol-3-yl)-4-morpholino-2-[4-[3-(trideuteriomethyl)phenyl]pyrazol-1-yl]furo[3,2-d]pyrimidine], the IC50 worked out at 0.2 nM.
